# The source made the active and inactive calls.
# Legend:
# [1] = target: T1, Voltage-gated N-type calcium channel alpha-1B subunit/Amyloid beta A4 precursor protein-binding family A member 1 (Homo sapiens, UniProt Q00975+Q02410); type: protein assay
# [2] = target: T1, Voltage-gated N-type calcium channel alpha-1B subunit/Amyloid beta A4 precursor protein-binding family A member 1; type: protein assay; remark: listed apart in the source
# [3] = target: E3 ubiquitin-protein ligase XIAP (Homo sapiens, UniProt P98170); assay: Counter Screen using XIAP-Bir3 for Chemical Antagonists of Bir1/2 domains of IAP-family anti-apoptotic proteins. [Related pubchem assays (depositor defined):AID1018, AID1449, AID1514, AID1638, AID1749, AID1750, AID488957, AID488963]
# [4] = target: T2, G-protein coupled receptor 35 (Homo sapiens, UniProt Q9HC97); assay: SAR analysis of Agonists of the GPR35 Receptor using an Image-Based Assay - Set 4. [Related pubchem assays (depositor defined):AID2013, AID2026]; type: functional
# Cannabinoid receptor 1 [5] = target: T3, Cannabinoid receptor 1 (Homo sapiens, UniProt P21554); assay: SAR analysis of agonists of the Cannabinoid Receptor 1 using an Image-Based Assay - Set 4. [Related pubchem assays (depositor defined):AID2013, AID2026]; type: functional
# [6] = target: G-protein coupled receptor 55 (Homo sapiens, UniProt Q9Y2T6); assay: SAR Analysis of Selective Antagonists of GPR55 using an Image-Based Assay - Set 4. [Related pubchem assays (depositor defined):AID2013, AID2026]; type: functional;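 also: antagonism of response to 5 µM lysophosphatidylinositol agonist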
# [7] = target: T2, G-protein coupled receptor 35; assay: SAR analysis of Antagonists of the GPR35 Receptor using an Image-Based Assay - Set 6. [Related pubchem assays (depositor defined):AID2013, AID2026]; type: functional
# Cannabinoid receptor 1 [8] = target: T3, Cannabinoid receptor 1; assay: SAR analysis of antagonists of the Cannabinoid Receptor 1 using an Image-Based Assay - Set 4. [Related pubchem assays (depositor defined):AID2013, AID2026]; type: functional
# Cannabinoid receptor 2 [9] = target: T4, Cannabinoid receptor 2 (Homo sapiens, UniProt P34972); assay: SAR analysis of agonists of the Cannabinoid Receptor 2 using an Image-Based Assay - Set 3. [Related pubchem assays (depositor defined):AID2013, AID2026]; type: functional
# Cannabinoid receptor 2 [10] = target: T4, Cannabinoid receptor 2; assay: SAR analysis of antagonists of the Cannabinoid Receptor 2 using an Image-Based Assay - Set 3. [Related pubchem assays (depositor defined):AID2013, AID2026]; type: functional
# HEK293 [11] = assay: NOD2 signaling inhibitors in MDP-stimulated cells, cell-based, uHTS, luminescence (AID 2001); type: functional; details: Homo sapiens
# [12] = target: T5, Replicative DNA helicase DnaB (Mycobacterium tuberculosis, UniProt P9WMR3); assay: DnaB intein splicing inhibitors, dose response, biochemical, cell-free fluorescence (AID 449749); type: functional
# T5 sequence (P9WMR3 whole entry): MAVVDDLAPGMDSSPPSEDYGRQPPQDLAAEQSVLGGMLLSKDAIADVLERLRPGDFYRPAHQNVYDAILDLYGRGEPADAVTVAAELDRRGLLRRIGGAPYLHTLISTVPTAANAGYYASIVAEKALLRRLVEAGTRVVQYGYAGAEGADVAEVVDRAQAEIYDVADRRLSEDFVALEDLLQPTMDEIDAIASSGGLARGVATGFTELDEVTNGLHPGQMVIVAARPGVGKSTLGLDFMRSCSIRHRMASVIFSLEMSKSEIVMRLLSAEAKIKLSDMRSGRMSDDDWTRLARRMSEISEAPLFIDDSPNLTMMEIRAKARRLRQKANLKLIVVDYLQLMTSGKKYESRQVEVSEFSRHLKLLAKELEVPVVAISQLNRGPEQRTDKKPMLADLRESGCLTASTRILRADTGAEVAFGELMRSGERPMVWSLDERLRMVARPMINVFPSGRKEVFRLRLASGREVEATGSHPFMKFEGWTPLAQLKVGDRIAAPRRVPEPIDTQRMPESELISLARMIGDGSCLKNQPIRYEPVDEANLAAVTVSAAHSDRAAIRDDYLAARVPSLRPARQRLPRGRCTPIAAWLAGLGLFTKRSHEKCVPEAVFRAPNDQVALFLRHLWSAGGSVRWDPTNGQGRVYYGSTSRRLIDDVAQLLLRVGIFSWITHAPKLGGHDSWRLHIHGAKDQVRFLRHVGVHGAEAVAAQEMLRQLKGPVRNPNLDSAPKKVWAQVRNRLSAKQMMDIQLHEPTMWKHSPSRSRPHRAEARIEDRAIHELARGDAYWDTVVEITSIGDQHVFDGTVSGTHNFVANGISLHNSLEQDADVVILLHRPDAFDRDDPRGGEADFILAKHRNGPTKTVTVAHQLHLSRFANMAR
# HEK293 [13] = assay: cells; type: functional, cell-based; details: Homo sapiens
# HEK293 [14] = assay: inhibition of NOD1-driven NF-kB reporter – cell-based, luminescence, uHTS, primary screen (AID 1578); type: functional; details: Homo sapiens
# Protein RecA = target: T6, Protein RecA (Mycobacterium tuberculosis, UniProt P9WHJ3); assay: Fluorescence Cell-Free Homogeneous Dose Retest to Identify Inhibitors of RecA-Intein Splicing Activity. [Related pubchem assays (depositor defined):AID2097, AID2223, AID489010, AID492950]; type: functional
# T6 sequence (P9WHJ3 whole entry): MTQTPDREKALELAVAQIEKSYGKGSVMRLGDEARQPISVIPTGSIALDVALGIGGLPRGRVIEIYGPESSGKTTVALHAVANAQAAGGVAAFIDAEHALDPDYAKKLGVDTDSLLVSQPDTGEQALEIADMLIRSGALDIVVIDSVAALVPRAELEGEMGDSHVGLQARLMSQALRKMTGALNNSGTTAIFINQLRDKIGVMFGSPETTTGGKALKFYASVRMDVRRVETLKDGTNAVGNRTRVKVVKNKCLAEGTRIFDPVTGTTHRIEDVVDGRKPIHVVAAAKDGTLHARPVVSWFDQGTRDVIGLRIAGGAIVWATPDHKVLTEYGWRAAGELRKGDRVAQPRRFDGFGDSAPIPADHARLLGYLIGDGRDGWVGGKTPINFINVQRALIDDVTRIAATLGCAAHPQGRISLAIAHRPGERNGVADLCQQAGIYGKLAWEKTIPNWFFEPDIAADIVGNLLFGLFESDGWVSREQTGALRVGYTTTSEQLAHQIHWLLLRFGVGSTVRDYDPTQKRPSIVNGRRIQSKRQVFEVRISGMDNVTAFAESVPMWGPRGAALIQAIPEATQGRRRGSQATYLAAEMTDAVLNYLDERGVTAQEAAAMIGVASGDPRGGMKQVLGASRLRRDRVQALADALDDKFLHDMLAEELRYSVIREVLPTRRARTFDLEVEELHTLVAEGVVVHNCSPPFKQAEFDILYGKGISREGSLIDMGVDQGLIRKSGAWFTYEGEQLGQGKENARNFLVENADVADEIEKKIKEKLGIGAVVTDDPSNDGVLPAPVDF
# [15] = target: Nucleotide-binding oligomerization domain-containing protein 2 (Homo sapiens, UniProt Q9HC29); assay: inhibition of NOD2-driven NF-kB reporter – cell-based, luminescence, uHTS, HEK293 (AID 1566); type: functional
# HEK293 [16] = assay: cells; type: functional, cell-based; details: Homo sapiens; remark: listed apart in the source
# HEK293 [17] = assay: cells; type: functional, cell-based; details: Homo sapiens; remark: listed apart in the source
# Hexokinase-1 = target: T7, Hexokinase-1 (Homo sapiens, UniProt P19367); assay: HK1 enzyme activation by HKDC1 hits – biochemical, selectivity assay for HKDC1 activator project, dose response (AID 504762); type: functional
# T7 sequence (P19367 whole entry): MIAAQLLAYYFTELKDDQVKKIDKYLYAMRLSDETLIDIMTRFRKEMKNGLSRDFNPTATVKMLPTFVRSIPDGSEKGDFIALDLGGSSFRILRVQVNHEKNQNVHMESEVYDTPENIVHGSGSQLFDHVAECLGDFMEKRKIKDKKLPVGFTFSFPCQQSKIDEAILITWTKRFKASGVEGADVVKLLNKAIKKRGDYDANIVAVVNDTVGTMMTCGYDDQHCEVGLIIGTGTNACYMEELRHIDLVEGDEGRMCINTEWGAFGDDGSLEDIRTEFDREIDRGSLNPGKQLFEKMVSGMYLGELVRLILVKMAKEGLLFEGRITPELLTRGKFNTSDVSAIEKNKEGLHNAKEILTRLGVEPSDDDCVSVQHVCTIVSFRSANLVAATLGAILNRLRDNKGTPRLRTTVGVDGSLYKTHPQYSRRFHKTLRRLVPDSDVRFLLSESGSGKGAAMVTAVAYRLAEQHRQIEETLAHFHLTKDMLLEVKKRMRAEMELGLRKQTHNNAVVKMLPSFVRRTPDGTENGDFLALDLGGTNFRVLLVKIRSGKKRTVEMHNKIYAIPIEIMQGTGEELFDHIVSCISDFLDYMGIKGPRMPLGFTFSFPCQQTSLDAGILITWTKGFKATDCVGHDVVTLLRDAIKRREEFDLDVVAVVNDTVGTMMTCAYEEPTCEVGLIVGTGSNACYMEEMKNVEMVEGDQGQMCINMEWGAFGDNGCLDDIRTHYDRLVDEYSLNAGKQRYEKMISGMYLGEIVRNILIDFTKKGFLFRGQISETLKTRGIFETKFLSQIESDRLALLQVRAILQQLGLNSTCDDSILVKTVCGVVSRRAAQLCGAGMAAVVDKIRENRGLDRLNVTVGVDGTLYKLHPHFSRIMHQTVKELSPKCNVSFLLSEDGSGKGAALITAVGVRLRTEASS
# Hexokinase HKDC1 = target: T8, Hexokinase HKDC1 (Homo sapiens, UniProt Q2TB90); assay: activation of HKDC1 glucose phosphorylation – biochemical, W721R variant, dose response (AID 504730); type: functional
# T8 sequence (Q2TB90 whole entry): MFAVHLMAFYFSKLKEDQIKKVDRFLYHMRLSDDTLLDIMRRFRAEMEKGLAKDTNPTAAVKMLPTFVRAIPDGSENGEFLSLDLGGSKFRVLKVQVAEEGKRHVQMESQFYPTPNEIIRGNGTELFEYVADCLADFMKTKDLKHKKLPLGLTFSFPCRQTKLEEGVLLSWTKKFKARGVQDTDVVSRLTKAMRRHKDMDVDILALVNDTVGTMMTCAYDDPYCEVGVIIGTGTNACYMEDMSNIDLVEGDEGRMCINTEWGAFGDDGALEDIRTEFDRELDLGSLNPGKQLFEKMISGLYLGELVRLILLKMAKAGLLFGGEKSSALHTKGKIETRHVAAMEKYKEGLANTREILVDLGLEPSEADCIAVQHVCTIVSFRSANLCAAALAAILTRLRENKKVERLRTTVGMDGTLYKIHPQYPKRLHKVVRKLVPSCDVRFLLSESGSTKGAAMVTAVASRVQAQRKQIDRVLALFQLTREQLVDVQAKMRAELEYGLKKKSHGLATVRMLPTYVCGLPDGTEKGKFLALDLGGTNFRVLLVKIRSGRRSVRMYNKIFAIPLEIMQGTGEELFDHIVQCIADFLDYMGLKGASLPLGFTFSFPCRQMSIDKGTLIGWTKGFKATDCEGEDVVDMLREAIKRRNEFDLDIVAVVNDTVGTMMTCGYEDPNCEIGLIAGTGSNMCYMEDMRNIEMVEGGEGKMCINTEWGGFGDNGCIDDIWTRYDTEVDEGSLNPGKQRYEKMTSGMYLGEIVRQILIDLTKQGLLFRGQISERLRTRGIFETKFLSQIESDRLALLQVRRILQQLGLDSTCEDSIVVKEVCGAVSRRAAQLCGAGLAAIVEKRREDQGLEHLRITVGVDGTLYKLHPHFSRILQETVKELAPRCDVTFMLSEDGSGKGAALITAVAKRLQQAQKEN
# [18] = target: Runt-related transcription factor 1/Core-binding factor subunit beta (Homo sapiens, UniProt Q01196+Q13951); assay: Confirmation of compounds inhibiting the binding between the RUNX1 Runt domain and CBFb-SMMHC via a fluorescence resonance energy transfer (FRET) assay. [Related pubchem assays (depositor defined):AID1434, AID1438, AID1496, AID1550, AID1645]; type: protein assay
# Streptococcus = assay: GAS UMAA2166 growth inhibition – luminescence, BacTiterGlo, counter-screen for streptokinase expression inhibitor project, dose response (AID 1915); type: functional, organism-based;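 also: potency for reduction of bacterial viability or growth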
# [19] = tested on: Streptococcus sp. 'group A'; assay: Streptococcus pyogenes SK(-)GAS viability under kanamycin – luminescence, BacTiterGlo, confirmation, counter-screen for streptokinase expression inhibitor project, dose response (AID 1900); type: functional, organism-based
# [20] = microbe, parasite or virus in culture; type: functional; details: Mycobacterium tuberculosis
# Chain of Nucleotide-binding oligomerization domain-containing protein 2 (Q9HC29 whole entry, the tested form may be a part): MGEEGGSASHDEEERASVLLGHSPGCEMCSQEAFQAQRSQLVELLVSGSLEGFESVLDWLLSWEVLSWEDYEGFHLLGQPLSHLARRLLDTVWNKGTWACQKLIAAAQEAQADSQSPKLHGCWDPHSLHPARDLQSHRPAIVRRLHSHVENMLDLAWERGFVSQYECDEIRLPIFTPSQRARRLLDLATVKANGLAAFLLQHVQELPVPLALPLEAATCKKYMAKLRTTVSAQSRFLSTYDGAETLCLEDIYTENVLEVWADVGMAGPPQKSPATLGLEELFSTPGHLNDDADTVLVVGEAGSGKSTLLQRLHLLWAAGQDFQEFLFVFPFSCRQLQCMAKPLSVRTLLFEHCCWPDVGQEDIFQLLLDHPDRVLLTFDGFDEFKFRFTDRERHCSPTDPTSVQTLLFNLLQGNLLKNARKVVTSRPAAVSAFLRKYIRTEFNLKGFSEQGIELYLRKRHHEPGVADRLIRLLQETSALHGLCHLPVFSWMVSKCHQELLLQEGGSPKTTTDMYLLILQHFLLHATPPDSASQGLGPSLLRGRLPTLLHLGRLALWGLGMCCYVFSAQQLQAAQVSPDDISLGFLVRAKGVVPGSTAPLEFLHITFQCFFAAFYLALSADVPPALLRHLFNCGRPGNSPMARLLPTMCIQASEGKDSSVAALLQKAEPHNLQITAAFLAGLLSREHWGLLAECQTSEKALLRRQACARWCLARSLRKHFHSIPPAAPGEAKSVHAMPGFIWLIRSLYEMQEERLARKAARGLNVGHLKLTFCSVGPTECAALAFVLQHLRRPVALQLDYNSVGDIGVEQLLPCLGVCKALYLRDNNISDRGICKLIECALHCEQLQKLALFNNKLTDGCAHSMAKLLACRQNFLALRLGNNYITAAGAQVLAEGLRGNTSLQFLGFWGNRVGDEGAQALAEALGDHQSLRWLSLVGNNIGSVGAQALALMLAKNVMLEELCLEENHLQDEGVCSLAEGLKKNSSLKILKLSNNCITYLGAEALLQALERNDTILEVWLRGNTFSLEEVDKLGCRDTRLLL
# T3 sequence (P21554 whole entry): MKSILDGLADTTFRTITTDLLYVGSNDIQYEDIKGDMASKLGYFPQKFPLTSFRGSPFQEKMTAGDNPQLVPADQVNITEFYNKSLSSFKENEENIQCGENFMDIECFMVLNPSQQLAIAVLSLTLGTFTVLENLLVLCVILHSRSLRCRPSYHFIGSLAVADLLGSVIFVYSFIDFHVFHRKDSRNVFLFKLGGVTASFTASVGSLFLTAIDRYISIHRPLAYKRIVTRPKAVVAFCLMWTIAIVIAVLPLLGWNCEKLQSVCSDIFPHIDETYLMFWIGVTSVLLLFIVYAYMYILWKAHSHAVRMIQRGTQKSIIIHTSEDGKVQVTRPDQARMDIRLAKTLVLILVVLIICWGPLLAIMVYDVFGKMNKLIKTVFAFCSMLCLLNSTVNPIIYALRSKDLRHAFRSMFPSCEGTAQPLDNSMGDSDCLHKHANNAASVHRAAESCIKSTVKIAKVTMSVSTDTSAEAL
# T1 sequence (Q00975 whole entry): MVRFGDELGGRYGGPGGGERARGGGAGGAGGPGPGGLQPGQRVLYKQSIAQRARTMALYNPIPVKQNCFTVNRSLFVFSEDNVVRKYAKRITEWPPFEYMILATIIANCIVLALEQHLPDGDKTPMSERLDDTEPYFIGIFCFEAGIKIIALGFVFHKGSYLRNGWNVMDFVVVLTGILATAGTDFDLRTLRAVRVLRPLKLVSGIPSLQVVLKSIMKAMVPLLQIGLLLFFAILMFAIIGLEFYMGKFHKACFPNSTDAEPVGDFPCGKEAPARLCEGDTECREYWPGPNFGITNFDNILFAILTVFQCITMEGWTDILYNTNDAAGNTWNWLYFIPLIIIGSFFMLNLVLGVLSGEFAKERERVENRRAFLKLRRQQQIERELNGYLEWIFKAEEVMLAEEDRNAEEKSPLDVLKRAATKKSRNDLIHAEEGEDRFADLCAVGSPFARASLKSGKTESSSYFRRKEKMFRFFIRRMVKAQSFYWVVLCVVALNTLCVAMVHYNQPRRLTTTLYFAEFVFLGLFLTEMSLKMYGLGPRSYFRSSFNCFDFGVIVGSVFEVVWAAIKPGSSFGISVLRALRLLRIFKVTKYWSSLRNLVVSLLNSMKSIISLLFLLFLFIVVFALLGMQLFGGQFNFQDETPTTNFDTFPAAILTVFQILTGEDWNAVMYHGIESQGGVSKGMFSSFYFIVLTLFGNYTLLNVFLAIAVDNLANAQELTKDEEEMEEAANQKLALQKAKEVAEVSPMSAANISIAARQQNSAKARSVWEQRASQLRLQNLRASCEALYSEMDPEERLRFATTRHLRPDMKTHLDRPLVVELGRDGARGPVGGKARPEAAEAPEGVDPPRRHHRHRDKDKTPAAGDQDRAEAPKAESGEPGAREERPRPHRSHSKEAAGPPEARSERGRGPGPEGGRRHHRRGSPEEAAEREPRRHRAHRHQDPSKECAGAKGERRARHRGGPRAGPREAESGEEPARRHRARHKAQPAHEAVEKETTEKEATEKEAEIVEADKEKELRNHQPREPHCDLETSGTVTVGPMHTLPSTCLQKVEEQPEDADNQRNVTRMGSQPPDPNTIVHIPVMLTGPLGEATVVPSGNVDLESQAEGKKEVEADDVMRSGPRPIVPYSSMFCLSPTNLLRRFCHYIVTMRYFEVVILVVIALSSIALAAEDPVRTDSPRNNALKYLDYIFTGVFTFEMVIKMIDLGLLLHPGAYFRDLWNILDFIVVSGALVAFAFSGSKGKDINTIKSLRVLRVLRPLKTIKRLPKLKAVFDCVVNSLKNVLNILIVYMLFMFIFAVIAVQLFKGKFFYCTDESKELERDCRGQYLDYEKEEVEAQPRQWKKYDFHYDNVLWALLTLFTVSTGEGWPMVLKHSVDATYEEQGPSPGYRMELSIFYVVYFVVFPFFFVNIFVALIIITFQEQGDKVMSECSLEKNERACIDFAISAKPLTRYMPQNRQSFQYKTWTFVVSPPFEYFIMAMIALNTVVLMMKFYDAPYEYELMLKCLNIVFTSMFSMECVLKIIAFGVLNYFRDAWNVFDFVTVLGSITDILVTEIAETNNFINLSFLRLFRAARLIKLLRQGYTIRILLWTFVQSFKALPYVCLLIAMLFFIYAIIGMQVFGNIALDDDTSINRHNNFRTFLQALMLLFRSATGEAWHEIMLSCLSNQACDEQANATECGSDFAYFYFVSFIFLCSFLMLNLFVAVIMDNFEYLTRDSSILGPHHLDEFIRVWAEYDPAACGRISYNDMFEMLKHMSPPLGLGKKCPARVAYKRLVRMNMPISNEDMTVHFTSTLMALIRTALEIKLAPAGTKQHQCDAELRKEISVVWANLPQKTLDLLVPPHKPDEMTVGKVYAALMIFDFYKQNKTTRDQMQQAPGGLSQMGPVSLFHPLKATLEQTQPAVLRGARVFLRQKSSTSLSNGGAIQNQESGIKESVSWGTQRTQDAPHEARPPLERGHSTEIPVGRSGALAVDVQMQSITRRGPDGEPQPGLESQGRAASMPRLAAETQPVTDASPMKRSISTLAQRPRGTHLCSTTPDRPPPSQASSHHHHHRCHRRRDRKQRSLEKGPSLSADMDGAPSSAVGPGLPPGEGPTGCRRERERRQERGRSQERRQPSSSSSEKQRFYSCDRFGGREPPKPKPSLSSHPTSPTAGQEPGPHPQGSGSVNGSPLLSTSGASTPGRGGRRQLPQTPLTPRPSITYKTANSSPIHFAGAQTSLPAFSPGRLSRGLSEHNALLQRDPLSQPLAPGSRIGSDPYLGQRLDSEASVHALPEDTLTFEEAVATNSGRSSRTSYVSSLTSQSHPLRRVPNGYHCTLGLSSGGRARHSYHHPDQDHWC
# T1 sequence (Q02410 whole entry): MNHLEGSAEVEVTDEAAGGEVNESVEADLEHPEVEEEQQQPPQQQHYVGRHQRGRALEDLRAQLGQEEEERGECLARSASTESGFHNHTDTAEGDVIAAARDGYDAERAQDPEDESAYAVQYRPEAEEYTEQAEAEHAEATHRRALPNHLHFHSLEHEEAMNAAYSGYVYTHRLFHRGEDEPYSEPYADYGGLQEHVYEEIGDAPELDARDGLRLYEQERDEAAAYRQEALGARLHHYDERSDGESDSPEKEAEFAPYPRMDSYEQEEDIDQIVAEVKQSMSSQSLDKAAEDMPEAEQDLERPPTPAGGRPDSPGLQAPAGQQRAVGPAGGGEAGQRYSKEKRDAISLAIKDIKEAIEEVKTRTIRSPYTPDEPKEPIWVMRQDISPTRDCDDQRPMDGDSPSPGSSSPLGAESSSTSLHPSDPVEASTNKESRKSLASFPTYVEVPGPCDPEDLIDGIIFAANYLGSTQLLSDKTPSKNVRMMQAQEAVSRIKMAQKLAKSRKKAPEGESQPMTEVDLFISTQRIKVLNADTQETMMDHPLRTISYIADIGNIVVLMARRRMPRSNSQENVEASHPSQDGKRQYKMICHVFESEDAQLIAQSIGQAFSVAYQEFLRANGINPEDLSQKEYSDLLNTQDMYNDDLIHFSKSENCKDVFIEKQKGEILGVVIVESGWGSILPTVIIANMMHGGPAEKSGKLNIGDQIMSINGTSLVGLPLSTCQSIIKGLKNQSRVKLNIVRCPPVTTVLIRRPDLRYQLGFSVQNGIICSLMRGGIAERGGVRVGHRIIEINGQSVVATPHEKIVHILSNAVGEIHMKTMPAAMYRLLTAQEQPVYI
# T2 sequence (Q9HC97 whole entry): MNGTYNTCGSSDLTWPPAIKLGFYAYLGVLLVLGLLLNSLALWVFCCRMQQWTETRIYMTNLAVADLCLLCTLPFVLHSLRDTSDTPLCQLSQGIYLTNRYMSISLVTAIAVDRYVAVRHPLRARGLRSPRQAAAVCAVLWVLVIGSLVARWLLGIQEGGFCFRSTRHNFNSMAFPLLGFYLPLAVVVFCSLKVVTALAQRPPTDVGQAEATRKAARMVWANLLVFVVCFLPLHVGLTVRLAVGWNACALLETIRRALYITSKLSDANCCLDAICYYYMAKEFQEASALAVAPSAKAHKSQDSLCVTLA
compound,measurement,setting,value
O=C(Nc1ccc(S(=O)(=O)N2CCOCC2)cc1)c1ccc(O)nc1,IC50,[1],> 50 µM (inactive)
same,IC50,[2],7.16 µM (active)
same,IC50,[3],> 20 µM (inactive)
Cc1noc(NS(=O)(=O)c2ccc(NC(=O)c3cc(-c4ccccc4Cl)nc4ccccc34)cc2)c1C,EC50,[4],> 32 µM (inactive)
same,EC50,Cannabinoid receptor 1 [5],> 32 µM (inactive)
same,IC50,[6],4.63 µM (active)
same,IC50,[7],> 32 µM (inactive)
same,IC50,Cannabinoid receptor 1 [8],18.8 µM (inactive)
same,EC50,Cannabinoid receptor 2 [9],> 32 µM (inactive)
same,IC50,Cannabinoid receptor 2 [10],> 32 µM (inactive)
O=C(CCl)Nc1c2c(nn1-c1ccccc1)CSC2,IC50,HEK293 [11],15.1 µM (inactive)
same,AC50,[12],60.5 µM (active)
same,IC50,HEK293 [13],8.63 µM (active)
same,EC50,HEK293 [14],3.07 µM (active)
same,EC50,Protein RecA,11.4 µM (active)
same,EC50,[15],> 20 µM (inactive)
same,IC50,HEK293 [16],> 20 µM (inactive)
same,IC50,HEK293 [17],> 20 µM (inactive)
CC(=O)N1CCN(C2c3cccc4cccc(c34)C2NS(=O)(=O)c2ccccc2)CC1 (configuration not stated),EC50,Hexokinase-1,29.4 µM (inactive)
same,EC50,Hexokinase HKDC1,48.9 µM (inactive)
Cc1ccc2oc(=O)c3cnn(CC(=O)N4CCCCCC4)c3c2c1,EC50,Hexokinase-1,21.7 µM (inactive)
same,EC50,Hexokinase HKDC1,34.1 µM (inactive)
O=S(=O)(Nc1ccc(-c2nc3cccnc3s2)cc1)c1ccccc1F,IC50,[18],> 50 µM (inactive)
Nc1nn2c(O)cc(-c3ccccc3)nc2c1N=Nc1ccc2c(c1)OCO2,IC50,HEK293 [11],14.5 µM (inactive)
same,EC50,Streptococcus,3.77 µM (active)
same,IC50,HEK293 [13],> 20 µM (inactive)
same,EC50,[19],2.16 µM (active)
same,EC50,HEK293 [14],18.4 µM (active)
same,EC50,[15],> 20 µM (inactive)
same,IC50,HEK293 [16],19 µM (active)
same,CC50,[20],29.9 µM (active)
same,IC50,HEK293 [17],> 20 µM (inactive)

# From ChEMBL document CHEMBL1201862, “PubChem BioAssay data set” (2004)
